Reference: ChEMBL document CHEMBL6087476, “Positive Charge-Concentrated Dimeric Lipopeptides with Enhanced Protease Resistance: A Potential Solution for Systemic Bacterial Infections” (J Med Chem, 2025)
Converted amounts (≈) assume the structure as drawn.

Legend:
Pseudomonas aeruginosa = assay: Antimicrobial activity against Pseudomonas aeruginosa 27853 assessed as increase in absorbance incubated for 20 to 22 hrs; format: functional; conditions: time 20-22 hrs
[1] = Hemolytic activity in healthy human RBC assessed as hemolysis incubated for 1 hr by microplate reader; format: toxicity, cell-based; conditions: erythrocyte
[2] = Cytotoxicity against porcine IPEC-J2 cells assessed as cell death measured after 18 to 24 hrs by MTT assay; format: functional; conditions: Sus scrofa, time 18-24 hrs
Escherichia coli [3] = assay: Antimicrobial activity against Escherichia coli ATCC 25922 assessed as increase in absorbance incubated for 20 to 22 hrs; format: functional; conditions: time 20-22 hrs
Enterococcus faecalis = assay: Antimicrobial activity against Enterococcus faecalis 29212 assessed as increase in absorbance incubated for 20 to 22 hrs; format: functional; conditions: time 20-22 hrs
Salmonella typhimurium [4] = assay: Antimicrobial activity against Salmonella typhimurium 14028 assessed as increase in absorbance incubated for 20 to 22 hrs; format: functional, Salmonella enterica subsp. enterica serovar Typhimurium; conditions: Salmonella enterica, time 20-22 hrs
[5] = system: Staphylococcus epidermidis; assay: Antimicrobial activity against Staphylococcus epidermidis 12228 assessed as increase in absorbance incubated for 20 to 22 hrs; format: functional; conditions: time 20-22 hrs
Staphylococcus aureus [6] = assay: Antimicrobial activity against Staphylococcus aureus 25923 assessed as increase in absorbance incubated for 20 to 22 hrs; format: functional; conditions: time 20-22 hrs
HEK-293T = assay: Cytotoxicity against human HEK293T cells assessed as cell death measured after 18 to 24 hrs by MTT assay; format: functional; conditions: time 18-24 hrs
Staphylococcus aureus [7] = assay: Antimicrobial activity against Staphylococcus aureus 29213 assessed as increase in absorbance incubated for 20 to 22 hrs; format: functional; conditions: time 20-22 hrs
Staphylococcus aureus [8] = assay: Antimicrobial activity against methicillin-resistant Staphylococcus aureus 43300 assessed as increase in absorbance incubated for 20 to 22 hrs; format: functional; conditions: time 20-22 hrs
Escherichia coli [9] = assay: Antimicrobial activity against Escherichia coli K99 assessed as increase in absorbance incubated for 20 to 22 hrs; format: functional; conditions: time 20-22 hrs
Escherichia coli [10] = assay: Antimicrobial activity against Escherichia coli K88 assessed as increase in absorbance incubated for 20 to 22 hrs; format: functional; conditions: time 20-22 hrs
RAW264.7 = assay: Cytotoxicity against mouse RAW264.7 cells assessed as cell death measured after 18 to 24 hrs by MTT assay; format: functional; conditions: time 18-24 hrs
Salmonella typhimurium [11] = assay: Antimicrobial activity against Salmonella typhimurium 7731 assessed as increase in absorbance incubated for 20 to 22 hrs; format: functional, Salmonella enterica subsp. enterica serovar Typhimurium; conditions: Salmonella enterica, time 20-22 hrs

SMILES | MIC (Pseudomonas aeruginosa) [µM] | HC10 [1] [µM] | IC10 [2] [µM] | MIC (Escherichia coli [3]) [µM] | MIC (Enterococcus faecalis) [µM] | MIC (Salmonella typhimurium [4]) [µM] | MIC [5] [µM] | MIC (Staphylococcus aureus [6]) [µM] | IC10 (HEK-293T) [µM] | MIC (Staphylococcus aureus [7]) [µM] | MIC (Staphylococcus aureus [8]) [µM] | MIC (Escherichia coli [9]) [µM] | MIC (Escherichia coli [10]) [µM] | IC10 (RAW264.7) [µM] | MIC (Salmonella typhimurium [11]) [µM]
CCCCCCCC(=O)NCCCC[C@H](NC(=O)[C@@H](N)CS)C(=O)NCC(=O)NCC(=O)NCC(=O)N[C@H](CCCNC(=N)N)C(=O)N[C@@H](CCCNC(=N)N)C(=O)N[C@@H](CCCNC(=N)N)C(=O)N1CCC[C@H]1C(=O)O | 64 (≈ 71.2 µg/mL) | 256 | 256 | 64 (≈ 71.2 µg/mL) | 128 (≈ 142 µg/mL) | 128 (≈ 142 µg/mL) | 128 (≈ 142 µg/mL) | 128 (≈ 142 µg/mL) | 256 | 128 (≈ 142 µg/mL) | 128 (≈ 142 µg/mL) | 128 (≈ 142 µg/mL) | 64 (≈ 71.2 µg/mL) | 256 | 128 (≈ 142 µg/mL)
CCCCCCCC(=O)NCCCC[C@H](N)C(=O)NCC(=O)NCC(=O)NCC(=O)N[C@H](CCCNC(=N)N)C(=O)N[C@@H](CCCNC(=N)N)C(=O)N[C@@H](CCCNC(=N)N)C(=O)N1CCC[C@H]1C(=O)N[C@@H](CS)C(=O)O | 8 (≈ 8.9 µg/mL) | 256 | 256 | 32 (≈ 35.6 µg/mL) | 128 (≈ 142 µg/mL) | 64 (≈ 71.2 µg/mL) | 128 (≈ 142 µg/mL) | 128 (≈ 142 µg/mL) | 256 | 128 (≈ 142 µg/mL) | 128 (≈ 142 µg/mL) | 32 (≈ 35.6 µg/mL) | 32 (≈ 35.6 µg/mL) | 256 | 32 (≈ 35.6 µg/mL)
CCCCCCCCCCCC(=O)NCCCC[C@H](N)C(=O)NCC(=O)NCC(=O)NCC(=O)N[C@H](CCCNC(=N)N)C(=O)N[C@@H](CCCNC(=N)N)C(=O)N[C@@H](CCCNC(=N)N)C(=O)N1CCC[C@H]1C(=O)N[C@@H](CSSC[C@H](NC(=O)[C@@H]1CCCN1C(=O)[C@H](CCCNC(=N)N)NC(=O)[C@H](CCCNC(=N)N)NC(=O)[C@@H](CCCNC(=N)N)NC(=O)CNC(=O)CNC(=O)CNC(=O)[C@@H](N)CCCCNC(=O)CCCCCCCCCCC)C(=O)O)C(=O)O | 8 (≈ 18.7 µg/mL) | 64 | 32 | 8 (≈ 18.7 µg/mL) | 32 (≈ 74.7 µg/mL) | 32 (≈ 74.7 µg/mL) | 32 (≈ 74.7 µg/mL) | 32 (≈ 74.7 µg/mL) | 128 | 32 (≈ 74.7 µg/mL) | 32 (≈ 74.7 µg/mL) | 32 (≈ 74.7 µg/mL) | 16 (≈ 37.4 µg/mL) | 64 | 32 (≈ 74.7 µg/mL)
CCCCCCCC(=O)NCCCC[C@H](N)C(=O)NCC(=O)NCC(=O)NCC(=O)N[C@H](CCCNC(=N)N)C(=O)N[C@@H](CCCNC(=N)N)C(=O)N[C@@H](CCCNC(=N)N)C(=O)N1CCC[C@H]1C(=O)N[C@@H](CSSC[C@H](NC(=O)[C@@H]1CCCN1C(=O)[C@H](CCCNC(=N)N)NC(=O)[C@H](CCCNC(=N)N)NC(=O)[C@@H](CCCNC(=N)N)NC(=O)CNC(=O)CNC(=O)CNC(=O)[C@@H](N)CCCCNC(=O)CCCCCCC)C(=O)O)C(=O)O | 4 (≈ 8.89 µg/mL) | 256 | 256 | 2 (≈ 4.45 µg/mL) | 64 (≈ 142 µg/mL) | 4 (≈ 8.89 µg/mL) | 64 (≈ 142 µg/mL) | 32 (≈ 71.1 µg/mL) | 256 | 32 (≈ 71.1 µg/mL) | 32 (≈ 71.1 µg/mL) | 4 (≈ 8.89 µg/mL) | 4 (≈ 8.89 µg/mL) | 256 | 4 (≈ 8.89 µg/mL)
CCCCCCCCCC(=O)NCCCC[C@H](NC(=O)[C@@H](N)CS)C(=O)NCC(=O)NCC(=O)NCC(=O)N[C@H](CCCNC(=N)N)C(=O)N[C@@H](CCCNC(=N)N)C(=O)N[C@@H](CCCNC(=N)N)C(=O)N1CCC[C@H]1C(=O)O | 16 (≈ 18.2 µg/mL) | 256 | 256 | 32 (≈ 36.5 µg/mL) | 64 (≈ 73 µg/mL) | 32 (≈ 36.5 µg/mL) | 128 (≈ 146 µg/mL) | 64 (≈ 73 µg/mL) | 256 | 64 (≈ 73 µg/mL) | 64 (≈ 73 µg/mL) | 32 (≈ 36.5 µg/mL) | 32 (≈ 36.5 µg/mL) | 256 | 64 (≈ 73 µg/mL)
CCCCCCCCCC(=O)NCCCC[C@H](N)C(=O)NCC(=O)NCC(=O)NCC(=O)N[C@H](CCCNC(=N)N)C(=O)N[C@@H](CCCNC(=N)N)C(=O)N[C@@H](CCCNC(=N)N)C(=O)N1CCC[C@H]1C(=O)N[C@@H](CS)C(=O)O | 8 (≈ 9.12 µg/mL) | 256 | 256 | 16 (≈ 18.2 µg/mL) | 32 (≈ 36.5 µg/mL) | 16 (≈ 18.2 µg/mL) | 32 (≈ 36.5 µg/mL) | 32 (≈ 36.5 µg/mL) | 256 | 32 (≈ 36.5 µg/mL) | 32 (≈ 36.5 µg/mL) | 16 (≈ 18.2 µg/mL) | 16 (≈ 18.2 µg/mL) | 256 | 32 (≈ 36.5 µg/mL)
